{"source": "ChEMBL document CHEMBL3046379", "about": "“Differential activity against aphid settling of flavones obtained from Clytostoma callistegioides (Bignoniaceae)” (2013)", "assay_type_in_all_cases": "functional", "key": {"Rhopalosiphum padi [1]": {"system": "Rhopalosiphum padi", "assay": "Anti-settling activity against Rhopalosiphum padi in compound treated barley [Hordeum vulgare L. (Poaceae)] foliage leaf assessed as aphids settled on leaf at 50 ug/cm'2 measured 24 hr (reference value: 55 +/- 4 to 90 +/- 3%)"}, "Rhopalosiphum padi [2]": {"system": "Rhopalosiphum padi", "assay": "Anti-settling activity against Rhopalosiphum padi in compound treated barley [Hordeum vulgare L. (Poaceae)] foliage leaf assessed as preference index at 50 ug/cm'2 measured 24 hr"}, "Myzus persicae [3]": {"system": "Myzus persicae", "assay": "Anti-settling activity against Myzus persicae (green peach aphid) in compound treated bell pepper leaf assessed as aphids settled on leaf at 50 ug/cm'2 measured 24 hr (reference value: 52 +/- 7 to 75 +/- 4%)"}, "Myzus persicae [4]": {"system": "Myzus persicae", "assay": "Anti-settling activity against Myzus persicae (green peach aphid) in compound treated bell pepper leaf assessed as preference index at 50 ug/cm'2 measured 24 hr"}}}
{"smiles": "COc1c(O)cc(O)c2c(=O)cc(-c3ccc(O)cc3)oc12", "note": "[4'-HYDROXYWOGONIN]", "values": [{"measurement": "Activity", "setting": "Rhopalosiphum padi [1]", "value": 44, "unit": "%"}, {"measurement": "Ratio", "setting": "Rhopalosiphum padi [2]", "value": 0.1}, {"measurement": "Activity", "setting": "Myzus persicae [3]", "value": 48, "unit": "%"}, {"measurement": "Ratio", "setting": "Myzus persicae [4]", "value": 0}]}
{"smiles": "COc1ccc(-c2cc(=O)c3c(O)cc(O)cc3o2)cc1", "note": "[ACACETIN]", "values": [{"measurement": "Activity", "setting": "Rhopalosiphum padi [1]", "value": 34, "unit": "%"}, {"measurement": "Ratio", "setting": "Rhopalosiphum padi [2]", "value": 0.3}, {"measurement": "Activity", "setting": "Myzus persicae [3]", "value": 44, "unit": "%"}, {"measurement": "Ratio", "setting": "Myzus persicae [4]", "value": 0.1}]}
{"smiles": "COc1ccc(-c2cc(=O)c3c(O)cc(O)c(OC)c3o2)cc1", "note": "[GALANGUSTIN]", "values": [{"measurement": "Activity", "setting": "Rhopalosiphum padi [1]", "value": 10, "unit": "%"}, {"measurement": "Ratio", "setting": "Rhopalosiphum padi [2]", "value": 0.8}, {"measurement": "Activity", "setting": "Myzus persicae [3]", "value": 29, "unit": "%"}, {"measurement": "Ratio", "setting": "Myzus persicae [4]", "value": 0.4}]}
